Test results published in patent US6855730B2, “3-methylidenyl-2-indolinone modulators of protein kinase” (Sugen, Inc., priority 1998, dated 2005).

Key:
[1] = molecular target: Myc-GyrB-FGFR fusion protein (Homo sapiens, UniProt P11362); experiment: Biochemical FGFR assay (ELISA); settings: read-out: bio fgfR1 IC50
[2] = molecular target: T1, human flk-1 (Homo sapiens, UniProt P35968); experiment: Biochemical FLK-1 assay (flk-1 autophosphorylation ELISA); settings: read-out: bio FLK1 IC50 (μM) % if inhibition at 100
T1 construct: host or cells: Flk-1/NIH cells (NIH fibroblasts)
Method in brief: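 Flk-1 from lysates of NIH fibroblasts over-expressing human flk-1 (50 μg/well) was captured on anti-flk-1 antibody-coated plates, then autophosphorylated with test compounds and ATP (0.3 mM working solution) for 60 min at room temperature before EDTA stop. Phosphotyrosine was detected with biotinylated 4G10, avidin-biotin peroxidase and TMB at 450 nm.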

[3] = molecular target: T2, flkGST (Homo sapiens, UniProt P35968); experiment: bio flkGST assay; assay type: biochemical
T2 construct: GST

[4] = molecular target: pyk2 (Homo sapiens, UniProt Q14289); experiment: bio pyk2 assay; assay type: biochemical
Chain of pyk2 (Q14289 whole entry, species assumed): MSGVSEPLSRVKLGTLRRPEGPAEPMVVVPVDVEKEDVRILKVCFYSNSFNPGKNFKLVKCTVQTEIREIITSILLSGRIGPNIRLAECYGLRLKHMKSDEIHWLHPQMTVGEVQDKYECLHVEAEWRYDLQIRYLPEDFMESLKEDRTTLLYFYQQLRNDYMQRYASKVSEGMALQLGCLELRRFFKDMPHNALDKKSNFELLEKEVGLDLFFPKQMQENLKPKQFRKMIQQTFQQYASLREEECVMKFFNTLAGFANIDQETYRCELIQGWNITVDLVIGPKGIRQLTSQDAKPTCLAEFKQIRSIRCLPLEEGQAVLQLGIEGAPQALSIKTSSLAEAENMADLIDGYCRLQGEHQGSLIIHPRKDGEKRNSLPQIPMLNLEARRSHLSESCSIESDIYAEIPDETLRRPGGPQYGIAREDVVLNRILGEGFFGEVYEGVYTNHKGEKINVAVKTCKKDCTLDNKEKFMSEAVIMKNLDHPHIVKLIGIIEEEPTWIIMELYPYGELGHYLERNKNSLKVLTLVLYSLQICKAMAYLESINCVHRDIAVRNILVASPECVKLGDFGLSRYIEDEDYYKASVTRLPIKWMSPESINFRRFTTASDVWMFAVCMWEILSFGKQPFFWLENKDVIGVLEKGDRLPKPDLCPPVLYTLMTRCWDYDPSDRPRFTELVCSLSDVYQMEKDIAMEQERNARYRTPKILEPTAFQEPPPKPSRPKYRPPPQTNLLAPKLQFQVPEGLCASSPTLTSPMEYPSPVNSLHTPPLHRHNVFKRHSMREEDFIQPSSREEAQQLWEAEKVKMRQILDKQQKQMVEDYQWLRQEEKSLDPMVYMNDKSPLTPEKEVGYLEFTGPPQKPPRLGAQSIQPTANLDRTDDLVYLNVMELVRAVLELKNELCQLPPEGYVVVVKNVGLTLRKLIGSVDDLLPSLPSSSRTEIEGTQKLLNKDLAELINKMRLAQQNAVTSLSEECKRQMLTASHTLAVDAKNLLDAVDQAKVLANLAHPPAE

T2 sequence (P35968 786-1356 limits assumed): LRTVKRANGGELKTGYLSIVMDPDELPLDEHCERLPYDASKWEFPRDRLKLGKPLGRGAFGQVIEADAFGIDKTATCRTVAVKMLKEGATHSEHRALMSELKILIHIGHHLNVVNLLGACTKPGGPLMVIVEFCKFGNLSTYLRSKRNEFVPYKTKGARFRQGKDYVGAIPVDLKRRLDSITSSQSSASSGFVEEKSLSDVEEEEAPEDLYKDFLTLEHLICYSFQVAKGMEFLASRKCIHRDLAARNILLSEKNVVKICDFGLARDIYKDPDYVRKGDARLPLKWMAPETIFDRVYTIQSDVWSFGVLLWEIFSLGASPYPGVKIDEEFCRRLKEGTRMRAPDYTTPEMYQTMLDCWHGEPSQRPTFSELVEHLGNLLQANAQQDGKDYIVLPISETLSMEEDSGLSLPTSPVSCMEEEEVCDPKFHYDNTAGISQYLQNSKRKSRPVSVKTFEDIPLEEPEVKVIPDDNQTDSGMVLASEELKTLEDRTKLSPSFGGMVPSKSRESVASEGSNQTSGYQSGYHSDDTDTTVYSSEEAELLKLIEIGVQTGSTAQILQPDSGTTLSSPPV
T1 sequence (P35968 20-1356): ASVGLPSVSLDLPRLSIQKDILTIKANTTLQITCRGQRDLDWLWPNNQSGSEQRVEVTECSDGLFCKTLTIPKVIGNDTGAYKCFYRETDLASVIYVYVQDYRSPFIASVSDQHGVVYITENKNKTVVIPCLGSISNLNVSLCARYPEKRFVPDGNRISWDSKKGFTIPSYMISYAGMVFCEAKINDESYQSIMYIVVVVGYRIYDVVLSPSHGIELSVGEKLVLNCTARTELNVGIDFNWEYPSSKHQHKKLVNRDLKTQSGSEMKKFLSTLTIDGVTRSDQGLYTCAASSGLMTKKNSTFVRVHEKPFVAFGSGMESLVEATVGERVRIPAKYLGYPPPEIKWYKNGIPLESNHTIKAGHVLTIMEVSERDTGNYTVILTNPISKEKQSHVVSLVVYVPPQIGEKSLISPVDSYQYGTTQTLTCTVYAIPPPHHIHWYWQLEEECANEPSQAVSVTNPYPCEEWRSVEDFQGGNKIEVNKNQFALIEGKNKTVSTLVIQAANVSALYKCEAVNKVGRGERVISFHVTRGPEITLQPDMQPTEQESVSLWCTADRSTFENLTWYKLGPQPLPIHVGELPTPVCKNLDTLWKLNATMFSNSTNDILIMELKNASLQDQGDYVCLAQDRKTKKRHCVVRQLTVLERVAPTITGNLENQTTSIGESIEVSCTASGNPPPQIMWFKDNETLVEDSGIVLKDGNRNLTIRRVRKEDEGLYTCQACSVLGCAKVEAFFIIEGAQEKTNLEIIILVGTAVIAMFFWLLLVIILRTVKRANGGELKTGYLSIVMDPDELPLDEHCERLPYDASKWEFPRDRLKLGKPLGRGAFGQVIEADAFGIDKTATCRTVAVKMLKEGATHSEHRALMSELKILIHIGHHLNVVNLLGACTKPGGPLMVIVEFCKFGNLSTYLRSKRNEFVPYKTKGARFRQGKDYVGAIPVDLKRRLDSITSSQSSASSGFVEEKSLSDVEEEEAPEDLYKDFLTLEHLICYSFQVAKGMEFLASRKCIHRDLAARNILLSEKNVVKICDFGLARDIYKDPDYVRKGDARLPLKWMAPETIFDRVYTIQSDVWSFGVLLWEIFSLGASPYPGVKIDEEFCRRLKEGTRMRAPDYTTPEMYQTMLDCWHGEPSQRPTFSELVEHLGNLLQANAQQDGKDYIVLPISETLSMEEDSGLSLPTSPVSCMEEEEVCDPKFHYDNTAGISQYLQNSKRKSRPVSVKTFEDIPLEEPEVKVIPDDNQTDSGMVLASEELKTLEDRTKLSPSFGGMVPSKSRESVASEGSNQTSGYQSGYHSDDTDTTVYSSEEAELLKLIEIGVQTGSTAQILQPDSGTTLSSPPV
Chain of Myc-GyrB-FGFR fusion protein (P11362 478-767 limits assumed): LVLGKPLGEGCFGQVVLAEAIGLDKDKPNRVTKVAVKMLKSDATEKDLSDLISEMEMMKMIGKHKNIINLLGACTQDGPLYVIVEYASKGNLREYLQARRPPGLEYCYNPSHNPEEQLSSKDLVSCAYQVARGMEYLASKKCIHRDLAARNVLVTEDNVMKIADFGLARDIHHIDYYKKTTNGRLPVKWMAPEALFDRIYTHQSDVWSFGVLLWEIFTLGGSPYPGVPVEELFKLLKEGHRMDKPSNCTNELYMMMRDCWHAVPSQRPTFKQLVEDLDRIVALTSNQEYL

SMILES | IC50 [1] [nM] | IC50 [2] [µM] | IC50 [3] [nM] | IC50 [4] [nM]
O=C(O)CCc1c(/C=C2\C(=O)Nc3ccccc32)[nH]c2c1CCCC2 [Example 190, 3-[2-(2-Oxo-1,2-dihydro-indol-3-ylidenemethyl)-4,5,6,7-tetrahydro-1H-indol-3-yl]-propionic acid] | 5850 | 0.06 | 87 | < 780
O=C(O)CCc1c(/C=C2\C(=O)Nc3ccc(Cl)cc32)[nH]c2c1CCCC2 [Example 191, 3-[2-(5-Chloro-2-oxo-1,2-dihydroindol-3-ylidenemethyl)-4,5,6,7-tetrahydro-1H-indol-3-yl]-propionic acid] | 40 | 0.02 | 40 | 68500
O=C(O)CCc1c(/C=C2\C(=O)Nc3ccc(Br)cc32)[nH]c2c1CCCC2 [Example 192, 3-[2-(5-Bromo-2-oxo-1,2-dihydroindol-3-ylidenemethyl)-4,5,6,7-tetrahydro-1H-indol-3yl]-propionic acid] | 1810 | 0.03 | 30 | 4870
Cc1cccc2c1/C(=C/c1[nH]c3c(c1CCC(=O)O)CCCC3)C(=O)N2 [Example 193, 3-[2-(4-Methyl-2-oxo-1,2-dihydroindol-3-ylidenemethyl)-4,5,6,7-tetrahydro-1H-indol-3-yl]-propionic acid] | 20 | 0.02 | 3600 | 17300
Cc1ccc2c(c1)/C(=C/c1[nH]c3c(c1CCC(=O)O)CCCC3)C(=O)N2 [Example 194, 3-[2-(5-Methyl-2-oxo-1,2-dihydroindol-3-ylidenemethyl)-4,5,6,7-tetrahydro-1H-indol-3-yl]-propionic acid] | 40 | 0.001 | 6670 | 4090
O=C(O)CCc1c(/C=C2\C(=O)Nc3cc(Cl)ccc32)[nH]c2c1CCCC2 [Example 195, 3-[2-(6-Chloro-2-oxo-1,2-dihydroindol-3-ylidenemethyl)-4,5,6,7-tetrahydro-1H-indol-3-yl]-propionic acid] | 20 | 0.03 | 4350 | 10700
COc1ccc2c(c1)NC(=O)/C2=C\c1[nH]c2c(c1CCC(=O)O)CCCC2 [Example 196, 3-[2-(6-Methoxy-2-oxo-1,2-dihydroindol-3-ylidenemethyl)-4,5,6,7-tetrahydro-1H-indol-3-yl]-propionic acid] | 50 | 0.89 | 410 | 2370
CN(C)C(=O)CCc1c(/C=C2\C(=O)Nc3ccccc32)[nH]c2c1CCCC2 [Example 197, N,N-Dimethyl-3-[2-(2-oxo-1,2-dihydroindol-3-ylidenemethyl)-4,5,6,7-tetrahydro-1H-indol-3-yl]-propionamide] | – | 2.1 | 610 | 12000
CN(C)CCCc1c(/C=C2\C(=O)Nc3ccccc32)[nH]c2c1CCCC2 [Example 198, 3-[3-(3-Dimethylaminopropyl)-4,5,6,7-tetrahydro-1H-indol-2-ylmethylene]-1,3-dihydroindol-2-one] | – | 7.44 | 5840 | 1500
NC(=O)CCc1c(/C=C2\C(=O)Nc3ccccc32)[nH]c2c1CCCC2 [Example 199, 3-[2-(2-Oxo-1,2-dihydroindol-3-ylidenemethyl)-4,5,6,7-tetrahydro-1H-indol-3-yl]-propionamide] | – | 0.13 | 170 | 2830
O=C1Nc2ccccc2/C1=C/c1[nH]c2c(c1CCC(=O)N1CCOCC1)CCCC2 [Example 200, 3-[3-(3-Morpholin-4-yl-3-oxopropyl)-4,5,6,7-tetrahydro-1H-indol-2-ylmethylene]-1,3-dihydroindol-2-one] | – | 0.97 | 1290 | 5620
CNC(=O)CCc1c(/C=C2\C(=O)Nc3ccccc32)[nH]c2c1CCCC2 [Example 201, N-Methyl-3-[2-(2-oxo-1,2-dihydroindol-3-ylidenemethyl)-4,5,6,7-tetrahydro-1H-indol-3-yl]-propionamide] | – | 0.16 | 570 | 6610
CC(C)NS(=O)(=O)c1ccc2c(c1)C(=Cc1[nH]c3c(c1CCC(=O)O)CCCC3)C(=O)N2 [Example 208, 3-[2-(5-Isopropylaminosulfonyl-2-oxo-1,2-dihydroindol-3-ylidenemethyl)-4,5,6,7-tetrahydro-1H-indol-3-yl]-propionic acid] | – | < 0.78 | 380 | 130
Cc1c[nH]c(/C=C2\C(=O)Nc3ccc(Cl)cc32)c1CCC(=O)O [Example 216, 3-[2-(5-Chloro-2-oxo-1,2-dihydroindol-3-ylidenemethyl)-4-methyl-1H-pyrrol-3-yl]-propionic acid] | – | 2.91 | – | 23900
COc1ccc2c(c1)NC(=O)/C2=C\c1[nH]cc(C)c1CCC(=O)O [Example 217, 3-[2-(6-Methoxy-2-oxo-1,2-dihydroindol-3-ylidenemethyl)-4-methyl-1H-pyrrol-3-yl]-propionic acid] | – | 1.47 | – | 2890
Cc1c[nH]c(/C=C2\C(=O)Nc3cccc(C)c32)c1CCC(=O)O [Example 218, 3-[2-(4-Methyl-2-oxo-1,2-dihydroindol-3-ylidenemethyl)-4-methyl-1H-pyrrol-3-yl]-propionic acid] | – | 0.2 | 480 | 32300
Cc1c[nH]c(C=C2C(=O)Nc3cc(Cl)ccc32)c1CCC(=O)O [Example 219, 3-[2-(6-Chloro-2-oxo-1,2-dihydroindol-3-ylidenemethyl)-4-methyl-1H-pyrrol-3-yl]-propionic acid] | – | 0.19 | – | 4150
Cc1c[nH]c(/C=C2\C(=O)Nc3ccc(Br)cc32)c1CCC(=O)O [Example 220, 3-[2-(5-Bromo-2-oxo-1,2-dihydroindol-3-ylidenemethyl)-4-methyl-1H-pyrrol-3-yl]-propionic acid] | – | 0.35 | 110 | 1890
